Measurements reported in PubChem BioAssay (NCI).
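Each compound was tested at five concentrations against cells in 96-well plates for 48 hours. The concentration for 50% growth inhibition is given as GI50. At the TGI there is no net growth.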

Columns and labels:
Test in all cases: NCI tumour cell line growth inhibition, 48 h
NCI-H226 lung = tested on: NCI-H226 lung
HOP-62 NSCLC = tested on: HOP-62 NSCLC
HCC-2998 colon = tested on: HCC-2998 colon
A498 renal = tested on: A498 renal
COLO 205 colon = tested on: COLO 205 colon
SW-620 colon = tested on: SW-620 colon
MALME-3M melanoma = tested on: MALME-3M melanoma
IGROV1 ovarian = tested on: IGROV1 ovarian
RPMI-8226 leukemia = tested on: RPMI-8226 leukemia
NCI-H522 lung = tested on: NCI-H522 lung
K-562 leukemia = tested on: K-562 leukemia
ACHN renal = tested on: ACHN renal
DU-145 prostate = tested on: DU-145 prostate
MDA-MB-435 = tested on: MDA-MB-435
U251 CNS = tested on: U251 CNS
SR leukemia = tested on: SR leukemia
PC-3 prostate = tested on: PC-3 prostate
SNB-75 CNS = tested on: SNB-75 CNS
CCRF-CEM leukemia = tested on: CCRF-CEM leukemia
HS 578T breast = tested on: HS 578T breast
MCF7 breast = tested on: MCF7 breast
HOP-92 NSCLC = tested on: HOP-92 NSCLC
CAKI-1 renal = tested on: CAKI-1 renal
MOLT-4 leukemia = tested on: MOLT-4 leukemia
OVCAR-8 ovarian = tested on: OVCAR-8 ovarian
RXF 393 renal = tested on: RXF 393 renal
SF-268 CNS = tested on: SF-268 CNS
SN12C renal = tested on: SN12C renal
OVCAR-5 ovarian = tested on: OVCAR-5 ovarian
UO-31 renal = tested on: UO-31 renal
MDA-MB-231 breast = tested on: MDA-MB-231 breast
T-47D breast = tested on: T-47D breast
NCI/ADR-RES ovarian = tested on: NCI/ADR-RES ovarian
M14 melanoma = tested on: M14 melanoma
LOX IMVI melanoma = tested on: LOX IMVI melanoma
SF-295 CNS = tested on: SF-295 CNS
BT-549 breast = tested on: BT-549 breast
OVCAR-4 ovarian = tested on: OVCAR-4 ovarian
SK-MEL-28 melanoma = tested on: SK-MEL-28 melanoma
SNB-19 CNS = tested on: SNB-19 CNS
HT29 colon = tested on: HT29 colon
SK-MEL-5 melanoma = tested on: SK-MEL-5 melanoma
UACC-257 melanoma = tested on: UACC-257 melanoma
SF-539 CNS = tested on: SF-539 CNS
NCI-H23 lung = tested on: NCI-H23 lung
NCI-H460 lung = tested on: NCI-H460 lung
HCT-116 colon = tested on: HCT-116 colon
786-0 renal = tested on: 786-0 renal
A549 NSCLC = tested on: A549 NSCLC
SK-OV-3 ovarian = tested on: SK-OV-3 ovarian
EKVX NSCLC = tested on: EKVX NSCLC
HCT-15 colon = tested on: HCT-15 colon
OVCAR-3 ovarian = tested on: OVCAR-3 ovarian
KM12 colon = tested on: KM12 colon
TK-10 renal = tested on: TK-10 renal
UACC-62 melanoma = tested on: UACC-62 melanoma
SK-MEL-2 melanoma = tested on: SK-MEL-2 melanoma

CCC(=O)OCC1OC(n2cnc3c(=S)nc(N)[nH]c32)C(OC(=O)CC)C1OC(=O)CC (centres undefined)
GI50 (NCI-H226 lung): 2.62 µM
TGI (NCI-H226 lung): > 100 µM
GI50 (HOP-62 NSCLC): 2.71 µM
TGI (HOP-62 NSCLC): 67.3 µM
GI50 (HCC-2998 colon): 15.2 µM
TGI (HCC-2998 colon): 73.1 µM
GI50 (A498 renal): 15.6 µM
TGI (A498 renal): > 100 µM
GI50 (COLO 205 colon): 3.57 µM
TGI (COLO 205 colon): 18.4 µM
GI50 (SW-620 colon): 16.3 µM
TGI (SW-620 colon): > 100 µM
GI50 (MALME-3M melanoma): 2.45 µM
TGI (MALME-3M melanoma): > 100 µM
GI50 (IGROV1 ovarian): 7.49 µM
TGI (IGROV1 ovarian): 44.5 µM
GI50 (RPMI-8226 leukemia): 3.79 µM
TGI (RPMI-8226 leukemia): 67.2 µM
GI50 (NCI-H522 lung): 2.89 µM
TGI (NCI-H522 lung): 18.6 µM
GI50 (K-562 leukemia): 6.69 µM
TGI (K-562 leukemia): > 100 µM
GI50 (ACHN renal): 5.28 µM
TGI (ACHN renal): 93.1 µM
GI50 (DU-145 prostate): 2.51 µM
TGI (DU-145 prostate): 47.7 µM
GI50 (MDA-MB-435): 4.73 µM
TGI (MDA-MB-435): > 100 µM
GI50 (U251 CNS): 21.5 µM
TGI (U251 CNS): > 100 µM
GI50 (SR leukemia): 0.828 µM
TGI (SR leukemia): > 100 µM
GI50 (PC-3 prostate): 5.2 µM
TGI (PC-3 prostate): > 100 µM
GI50 (SNB-75 CNS): 3 µM
TGI (SNB-75 CNS): 88.9 µM
GI50 (CCRF-CEM leukemia): 2.12 µM
TGI (CCRF-CEM leukemia): 28.2 µM
GI50 (HS 578T breast): 23.8 µM
TGI (HS 578T breast): > 100 µM
GI50 (MCF7 breast): 3.57 µM
TGI (MCF7 breast): 41.7 µM
GI50 (HOP-92 NSCLC): 0.892 µM
TGI (HOP-92 NSCLC): 20.9 µM
GI50 (CAKI-1 renal): 3.52 µM
TGI (CAKI-1 renal): > 100 µM
GI50 (MOLT-4 leukemia): 5.31 µM
TGI (MOLT-4 leukemia): > 100 µM
GI50 (OVCAR-8 ovarian): 7.1 µM
TGI (OVCAR-8 ovarian): > 100 µM
GI50 (RXF 393 renal): 6.06 µM
TGI (RXF 393 renal): > 100 µM
GI50 (SF-268 CNS): 3.95 µM
TGI (SF-268 CNS): > 100 µM
GI50 (SN12C renal): 12.4 µM
TGI (SN12C renal): > 100 µM
GI50 (OVCAR-5 ovarian): 9.15 µM
TGI (OVCAR-5 ovarian): > 100 µM
GI50 (UO-31 renal): 1.97 µM
TGI (UO-31 renal): 54.2 µM
GI50 (MDA-MB-231 breast): 5.44 µM
TGI (MDA-MB-231 breast): > 100 µM
GI50 (T-47D breast): 3.17 µM
TGI (T-47D breast): 43.8 µM
GI50 (NCI/ADR-RES ovarian): 14.8 µM
TGI (NCI/ADR-RES ovarian): > 100 µM
GI50 (M14 melanoma): 2.33 µM
TGI (M14 melanoma): 24.6 µM
GI50 (LOX IMVI melanoma): 2.17 µM
TGI (LOX IMVI melanoma): > 100 µM
GI50 (SF-295 CNS): 5.27 µM
TGI (SF-295 CNS): > 100 µM
GI50 (BT-549 breast): 5.42 µM
TGI (BT-549 breast): > 100 µM
GI50 (OVCAR-4 ovarian): 4.95 µM
TGI (OVCAR-4 ovarian): 81.3 µM
GI50 (SK-MEL-28 melanoma): 37.5 µM
TGI (SK-MEL-28 melanoma): > 100 µM
GI50 (SNB-19 CNS): 80.9 µM
TGI (SNB-19 CNS): > 100 µM
GI50 (HT29 colon): 14.7 µM
TGI (HT29 colon): > 100 µM
GI50 (SK-MEL-5 melanoma): 13.9 µM
TGI (SK-MEL-5 melanoma): 34 µM
GI50 (UACC-257 melanoma): 35.4 µM
TGI (UACC-257 melanoma): > 100 µM
GI50 (SF-539 CNS): 4.88 µM
TGI (SF-539 CNS): 52.1 µM
GI50 (NCI-H23 lung): 9.73 µM
TGI (NCI-H23 lung): > 100 µM
GI50 (NCI-H460 lung): 6.62 µM
TGI (NCI-H460 lung): > 100 µM
GI50 (HCT-116 colon): 4.25 µM
TGI (HCT-116 colon): > 100 µM
GI50 (786-0 renal): 8.09 µM
TGI (786-0 renal): > 100 µM
GI50 (A549 NSCLC): 71.8 µM
TGI (A549 NSCLC): > 100 µM
GI50 (SK-OV-3 ovarian): 2.36 µM
TGI (SK-OV-3 ovarian): 14.5 µM
GI50 (EKVX NSCLC): 10.7 µM
TGI (EKVX NSCLC): > 100 µM
GI50 (HCT-15 colon): 9.39 µM
TGI (HCT-15 colon): > 100 µM
GI50 (OVCAR-3 ovarian): 3.03 µM
TGI (OVCAR-3 ovarian): 17.7 µM
GI50 (KM12 colon): 6.06 µM
TGI (KM12 colon): 44.4 µM
GI50 (TK-10 renal): 3.63 µM
TGI (TK-10 renal): > 100 µM
GI50 (UACC-62 melanoma): 2.29 µM
TGI (UACC-62 melanoma): 14.4 µM
GI50 (SK-MEL-2 melanoma): 2.89 µM
TGI (SK-MEL-2 melanoma): 46.4 µM
